According to patent US11339193B2, “CDP protein secretion inhibitors” (KEZAR LIFE SCIENCES, priority 2018, dated 2022):
Numbered stars: 1 amine (or outer) side, 2 acyl side, 3 side chain; on linkers, the order of the positions; unused ones are H or OH. Square brackets hold non-standard residues; d marks the D form. Peptide text beside a SMILES is read from it. NMeAla(5-Cl-benzothien-3-yl) = CN[C@@H](Cc1csc2ccc(Cl)cc12)C(=O)O; Ala(1-cyclohexenyl) = N[C@@H](CC1=CCCCC1)C(=O)O; Butanoyl(2R-oxy,4-CN) = N#CCC[C@@H](O)C(=O)O; X22 = CCCC[C@@H](C)C[C@H](N[*:1])C(=O)[*:2]; Abu(4,4,4-F3) = N[C@@H](CC(F)(F)F)C(=O)O; NMeAla(cPent) = CN[C@@H](CC1CCCC1)C(=O)O; NMeCha = CN[C@@H](CC1CCCCC1)C(=O)O; NMeF = CN[C@@H](Cc1ccccc1)C(=O)O; aIle = CC[C@@H](C)[C@H](N)C(=O)O; Cha = N[C@@H](CC1CCCCC1)C(=O)O; NMeL = CN[C@@H](CC(C)C)C(=O)O; hLeu = CC(C)CC[C@H](N)C(=O)O; NMeA = CN[C@@H](C)C(=O)O; Nva = CCC[C@H](N)C(=O)O; dLac = C[C@@H](O)C(=O)O; Abu = CC[C@H](N)C(=O)O

How the values were obtained:
Assay type in all cases: cell-based
[1] = tested on: Prl-ss+10aa/Gaussia Luciferase; assay: Prl-ss-Gluc assay (constitutively active or 24 hr Dox inducible); conditions: Flp-In 293 T-REx cells, 24 hours; read-out: Prl IC50
Source text: Constitutively Active Prl-ss-Gluc Assay
Flp-In 293 T-REx™ cells were transfected with pcDNA™5/FRT plasmid inserted with cDNA encoding Gaussia Luciferase fused to the 3′ end of cDNA encoding Prl signal sequence plus 10 amino acids (N-[…]-C) (SEQ ID NO:4). Transfected cells were selected for resistance to the selectable markers Hygromycin and Blasticidin to create a stable cell line that constitutively expressed the Prlss+10aa/Gaussia Luciferase fusion protein. The day before assay, cells were trypsinized and plated in 384-well tissue culture plates. The next day, culture media was removed from the wells and replaced with fresh media. Compound dilutions in DMSO/media were added to the wells and incubated at 37° C., 5% CO2.
24 hr Dox Inducible Prl-ss-Gluc Assay
(§1) Flp-In 293 T-REx™ cells were transfected with pcDNA™5/FRT/TO plasmid inserted with cDNA encoding Gaussia Luciferase fused to the 3′ end of cDNA encoding Prl signal sequence plus 10 amino acids (N-[…]-C) (SEQ ID NO:5). Transfected cells were selected for resistance to the selectable markers Hygromycin and Blasticidin to create a stable cell line that contained the Prl-ss+10aa/Gaussia Luciferase cDNA insert whose expression was regulated under the T-REx™ system. The day before assay, cells were trypsinized and plated in 384-well tissue culture plates. The next day, compound dilutions in DMSO/media containing doxycycline were added to the wells and incubated at 37° C., 5% CO2.

[2] = tested on: NCI-H929 multiple myeloma cell line; assay: H929 assay (cell viability, Celltiter-Glo); conditions: Homo sapiens, NCI-H929; 48 hours, cell viability; read-out: H929 EC50
Description: The human multiple myeloma cell line NCI-H929 was cultured in Advanced RPMI 1640 media (Gibco@) supplemented with 6% fetal bovine serum, 2 mM Glutamine, and 1× Penicillin/Streptomycin. On the day of assay, cells were resuspended in RPMI 1640 media supplemented with 10% fetal bovine serum, 2 mM Glutamine, and 1× Penicillin/Streptmycin and plated in 384-well tissue culture plates and treated with compound dilutions in DMSO/media. Plates were incubated at 37° C., 5% CO2 for 48 hours. After 48 hours, Celltiter-Glo@ (Promega) was added to each well and luciferase signal was quantified using Tecan Infinite M1000 Pro for cell viability determination.

[3] = tested on: PD1-ss+10aa/Gaussia Luciferase; assay: Dox induced PD1-ss-Gluc assay; conditions: Flp-In 293 T-REx cells, doxycycline, 24 hours; read-out: PD1ss Gluc IC50
Source text: Dox Induced PD1-ss-Gluc Assay
as §1, with “PD1” for “Prl”, “NO:3).” for “NO:5).”, “PD1-ss+10aa/Gaussia” for “Prl-ss+10aa/Gaussia”

[4] = tested on: TNFα-FL/Gaussia Luciferase; assay: Dox induced TNFα-FL-Gluc assay; conditions: Flp-In 293 T-REx cells, doxycycline, 24 hours; read-out: TNFa FL Gluc IC50
Source text: Dox Induced TNFα-FL-Gluc Assay
Flp-In 293 T-REx™ cells were transfected with pcDNA™5/FRT/TO plasmid inserted with cDNA encoding Gaussia Luciferase fused to the 3′ end of cDNA encoding full length TNFα (amino acids 1-233). Transfected cells were selected for resistance to the selectable markers Hygromycin and Blasticidin to create a stable cell line that contained the TNFα-FL/Gaussia Luciferase cDNA insert whose expression was regulated under the T-REx™ system. The day before assay, cells were trypsinized and plated in 384-well tissue culture plates. The next day, compound dilutions in DMSO/media containing doxycycline were added to the wells and incubated at 37° C., 5% CO2.

HER3ss-Gluc = assay: HER3ss assay; conditions: HEK-293T T-rex cells, transient transfection, doxycycline, 24 h; read-out: HER3 ss IC50
Description: The mature domain of secreted luciferase from Gaussia princeps (GLuc) was cloned into pcDNA5/FRT/TO. The signal sequence plus four amino acids of the mature domain from HER3 ([…]) (SEQ ID NO:8) were cloned upstream of GLuc mature domain and used in transient transfection experiment. HEK-293T T-rex cells were cultured in Dulbecco's modified Eagle's medium with 10% FBS at 5% CO2. Cells were plated 1×10e6 cells per well in a 6-well plate and incubated for 6 h. Cells were transiently transfected with HER3ss-Gluc using Lipofectamine 2000 (Invitrogen). After overnight incubation, transfected cells were replated in a clear-bottomed, black 96-well plate at a density of 20,000 cells per well. Six hours after plating, the cells were treated with doxycycline (1 μg/ml) and increasing concentrations of the indicated compounds for 24 h. Secreted luciferase in the conditioned media was quantified by luminescence using the BioLux Gaussia Luciferase Assay Kit (New England Biolabs, Ipswich, Mass., USA) and a SpectraMax M5 plate reader (Molecular Devices).

IC50 [1] [nM] | EC50 [2] [nM] | IC50 [3] [nM] | IC50 [4] [nM] | IC50 (HER3ss-Gluc) [nM] | SMILES
740 | 376 | 37 | 109 | – | CCCC[C@@H](C)C[C@@H]1NC(=O)[C@H](CC2CCCCC2)N(C)C(=O)[C@H](CCC)NC(=O)[C@H](CC(C)C)N(C)C(=O)[C@H](C[C@H](C)CCCC)NC(=O)[C@@H](CCC#N)OC(=O)[C@H](C)N(C)C1=O [C-44] (cyclo([NMeA][Butanoyl(2R-oxy,4-CN)][X22][NMeL][Nva][NMeCha][X22]))
– | 4090 | 397 | 754 | 9 | CC(C)C[C@@H]1NC(=O)[C@H](Cc2csc3ccc(Cl)cc23)N(C)C(=O)[C@H](CC(C)C)NC(=O)[C@H](CC(C)C)N(C)C(=O)[C@H](CC(F)(F)F)NC(=O)[C@@H](CCC#N)OC(=O)[C@H](C)N(C)C1=O [C-67] (cyclo(L[NMeA][Butanoyl(2R-oxy,4-CN)][Abu(4,4,4-F3)][NMeL]L[NMeAla(5-Cl-benzothien-3-yl)]))
2500 | 4910 | 248 | 911 | – | CCCC[C@@H](C)C[C@@H]1NC(=O)[C@H](CC2CCCCC2)N(C)C(=O)[C@H](CC(C)C)NC(=O)[C@H](CC(C)C)N(C)C(=O)[C@H](CC2CCCCC2)NC(=O)[C@@H](CCC#N)OC(=O)[C@H](C)N(C)C1=O [C-45] (cyclo([Cha][NMeL]L[NMeCha][X22][NMeA][Butanoyl(2R-oxy,4-CN)]))
– | 4730 | 335 | 1120 | – | CCCC[C@@H](C)C[C@@H]1NC(=O)[C@H](CC2CCCCC2)N(C)C(=O)[C@H](CC(C)C)NC(=O)[C@H](CC(C)C)N(C)C(=O)[C@H](CCC(C)C)NC(=O)[C@@H](CCC#N)OC(=O)[C@H](C)N(C)C1=O [C-60] (cyclo(L[NMeCha][X22][NMeA][Butanoyl(2R-oxy,4-CN)][hLeu][NMeL]))
– | 953 | 66 | 88 | – | CCCC[C@@H](C)C[C@@H]1NC(=O)[C@H](CC2=CCCC2)N(C)C(=O)[C@H](CC(C)C)NC(=O)[C@H](CC(C)C)N(C)C(=O)[C@H](C[C@H](C)CCCC)NC(=O)[C@@H](CCC#N)OC(=O)[C@H](C)N(C)C1=O [C-23]
– | 5150 | 374 | 1390 | – | CCCC[C@@H](C)C[C@@H]1NC(=O)[C@H](CC2CCCCC2)N(C)C(=O)[C@H](CC(C)C)NC(=O)[C@H](CC(C)C)N(C)C(=O)[C@H](CCC)NC(=O)[C@@H](CCC#N)OC(=O)[C@H](C)N(C)C1=O [C-19] (cyclo(L[NMeCha][X22][NMeA][Butanoyl(2R-oxy,4-CN)][Nva][NMeL]))
– | 1650 | 94 | 238 | – | CCCC[C@@H](C)C[C@@H]1NC(=O)[C@H](CC2CCCCC2)N(C)C(=O)[C@H](CC(C)C)NC(=O)[C@H](CC(C)C)N(C)C(=O)[C@H](CC2=CCCCC2)NC(=O)[C@@H](CCC#N)OC(=O)[C@H](C)N(C)C1=O [C-56] (cyclo(L[NMeCha][X22][NMeA][Butanoyl(2R-oxy,4-CN)][Ala(1-cyclohexenyl)][NMeL]))
– | 8800 | 1040 | 2800 | – | CC(C)C[C@@H]1NC(=O)[C@H](Cc2ccc3ccccc3c2)N(C)C(=O)[C@H](CC(C)C)NC(=O)[C@H](CC(C)C)N(C)C(=O)[C@H](CC(C)C)NC(=O)[C@@H](CCC#N)OC(=O)[C@H](C)N(C)C1=O [C-66] (HELM PEPTIDE1{L.[CN([C@@H](Cc1ccc2ccccc2c1)C(=O)[*:2])[*:1]].L.[meA].[N#CCC[C@@H](O[*:1])C(=O)[*:2]].L.[meL]}$PEPTIDE1,PEPTIDE1,1:R1-7:R2$$$V2.0)
– | 950 | 115 | 236 | – | CCCC[C@@H](C)C[C@@H]1NC(=O)[C@H](CC2CCCC2)N(C)C(=O)[C@H](CC(C)C)NC(=O)[C@H](CC(C)C)N(C)C(=O)[C@H](C[C@H](C)CCCC)NC(=O)[C@@H](CCC#N)OC(=O)[C@H](C)N(C)C1=O [C-22] (cyclo(L[NMeAla(cPent)][X22][NMeA][Butanoyl(2R-oxy,4-CN)][X22][NMeL]))
– | 4060 | 460 | 779 | – | CCCC[C@@H](C)C[C@@H]1NC(=O)[C@@H](C)OC(=O)[C@H](C)N(C)C(=O)[C@H](C(C)C)NC(=O)[C@H](Cc2ccccc2)N(C)C(=O)[C@H](CC(C)C)NC(=O)[C@H](CC(C)C)N(C)C1=O [C-02] (HELM PEPTIDE1{L.[meF].V.[meA].[C[C@@H](O[*:1])C(=O)[*:2]].[CCCC[C@@H](C)C[C@H](N[*:1])C(=O)[*:2]].[meL]}$PEPTIDE1,PEPTIDE1,1:R1-7:R2$$$V2.0)
– | 1260 | 86 | 104 | – | CCCC[C@@H](C)C[C@@H]1NC(=O)[C@H](Cc2ccccc2)N(C)C(=O)[C@H](CCC)NC(=O)[C@H](CC(C)C)N(C)C(=O)[C@H](C[C@H](C)CCCC)NC(=O)[C@@H](C)OC(=O)[C@H](C)N(C)C1=O [C-04] (cyclo([NMeA][dLac][X22][NMeL][Nva][NMeF][X22]))
1530 | 593 | 67 | 211 | – | CCCC[C@@H](C)C[C@@H]1NC(=O)[C@H](CC2CCCCC2)N(C)C(=O)[C@H](CC)NC(=O)[C@H](CC(C)C)N(C)C(=O)[C@H](C[C@H](C)CCCC)NC(=O)[C@@H](CCC#N)OC(=O)[C@H](C)N(C)C1=O [C-43] (cyclo([Abu][NMeCha][X22][NMeA][Butanoyl(2R-oxy,4-CN)][X22][NMeL]))
– | 2360 | 297 | 376 | – | CCCC[C@@H](C)C[C@@H]1NC(=O)[C@@H](CCC#N)OC(=O)[C@H](C)N(C)C(=O)[C@H](CC)NC(=O)[C@H](Cc2ccccc2)N(C)C(=O)[C@H](CC(C)C)NC(=O)[C@H](CC(C)C)N(C)C1=O [C-25] (HELM PEPTIDE1{[Abu].[meA].[N#CCC[C@@H](O[*:1])C(=O)[*:2]].[CCCC[C@@H](C)C[C@H](N[*:1])C(=O)[*:2]].[meL].L.[meF]}$PEPTIDE1,PEPTIDE1,1:R1-7:R2$$$V2.0)

SMILES | IC50 [1] [nM] | EC50 [2] [nM] | IC50 [3] [nM] | IC50 [4] [nM] | IC50 (HER3ss-Gluc) [nM]
CCCC[C@@H](C)C[C@@H]1NC(=O)[C@H](CC2CCCCC2)N(C)C(=O)[C@H](CC(C)C)NC(=O)[C@H](CC(C)C)N(C)C(=O)[C@H]([C@H](C)CC)NC(=O)[C@@H](CCC#N)OC(=O)[C@H](C)N(C)C1=O [C-62] (cyclo(L[NMeCha][X22][NMeA][Butanoyl(2R-oxy,4-CN)][aIle][NMeL])) | – | 4220 | 277 | 1660 | –
CCCC[C@@H](C)C[C@@H]1NC(=O)[C@H](Cc2ccccc2)N(C)C(=O)[C@H](CC(C)C)NC(=O)[C@H](CC(C)C)N(C)C(=O)[C@H](CC(F)(F)F)NC(=O)[C@@H](C)OC(=O)[C@H](C)N(C)C1=O [C-03] (cyclo(L[NMeF][X22][NMeA][dLac][Abu(4,4,4-F3)][NMeL])) | – | 5070 | 385 | 525 | –
